# Test results taken from EP4755880A1, “SUBSTITUTED NITROGEN-CONTAINING BICYCLIC COMPOUND AND USE THEREOF” (Sunshine Lake Pharma Co., Ltd., priority 2023, dated 2025).
# Legend:
# [1] = target: PARP1 (Homo sapiens, UniProt P09874); test: Inhibition of PARP1 enzyme activity (ELISA, chemiluminescence); format: biochemical; conditions: for IC50: ELISA, histone-coated plate, NAD+, 60 min at 25 °C; for Selectivity PARP2/PARP1: ratio of PARP2 IC50 to PARP1 IC50
# Procedure: Experimental Objective: To evaluate the inhibitory effect of the compounds of the present invention on the enzyme activities of PARP1 and PARP2 using ELISA.
# • 1. histone-coated 384-well plates was prepared: 25 µL of histone solution was added to each well and incubated overnight at 4 °C. • 2. PBST buffer, blocking buffer (PBS buffer with 5% BSA and 0.05% Tween-20 added) and detection buffer (20 mM HEPES pH 7.5 + 100 mM NaCl + 2 mM DTT + 0.002% Tween-20 + 0.1% BSA) were prepared. • 3. The histone-coated 3 84-well plate was washed three times with PBST buffer, blocked at room temperature with 50 µL blocking buffer for 1 hour, and then washed three times with PBST buffer. • 4. Test compounds were prepared as 2000-fold stock solutions in DMSO. 50 nL of the stock solution was mixed with 19.95 µL detection buffer, and 5 µL of the gradient-diluted test compound was transferred to each well. • 5. Enzymatic reaction (PARP1): PARP1 & DNA mix was pre-incubated at 25 °C for 10 minutes. 10 µL of the PARP1 & DNA mix was added to each well and incubated with the test compound at room temperature for 10 minutes. […] Finally, the 384-well plate was washed three times with PBST buffer. Enzymatic reaction (PARP2): PARP2 was pre-incubated at 25 °C for 10 minutes. 10 µL of PARP2 was added to each well and incubated with the test compound at room temperature for 10 minutes. […] Finally, the 384-well plate was washed three times with PBST buffer. • 6. Detection (PARP1): 20 µL of anti-Poly/Mono-ADP Ribose Rabbit mAb was added and incubated at room temperature for 1.5 hours, followed by three washes of the 384-well plate with PBST buffer. Then, 20 µL of diluted anti-rabbit IgG, HRP-linked Antibody (diluted 1:2000 in blocking buffer) was added and incubated at room temperature for 1 hour. After washing the plate three times with PBST buffer, 25 µL of a 1:1 mixture of Femto-ECL Substrate A and Femto-ECL Substrate B was added. Detection (PARP2): 25 µL of Strep-HRP was added and incubated at room temperature for 1 hour, followed by three washes of the 384-well plate with PBS buffer. Then, 25 µL of a 1:1 mixture of Femto-ECL Substrate A and Femto-ECL Substrate B was added. • 7. Chemiluminescence intensity was measured using an Envision multimode microplate reader. • 8. Data Processing
# The inhibition rate was calculated in Excel using formula (1). inh% = (Max−Signal)/(Max−Min)*100 [formula]
# The IC50 value was obtained by fitting the data in XL-Fit using formula (2). Y = bottom + (top−bottom)/(1+(IC50/X)*HillSlope); [formula] wherein Y is the inhibition percentage and X is the compound concentration.
# [2] = test system: DLD-1 BRCA2(-/-) cells; test: Inhibition of proliferation of DLD-1 BRCA2(-/-) cells (CTG method); format: cell-based; conditions: Homo sapiens, DLD-1, 168 h; 7 days incubation, CellTiter-Glo
# Procedure: • 1. Cell Pretreatment: DLD-1 BRCA2(-/-) cells were cultured in growth medium 1640 + 10% FBS (fetal bovine serum) + 1% Penicillin-Streptomycin. Cells in the logarithmic growth phase were digested with trypsin-EDTA, centrifuged, and resuspended. DLD-1 BRCA2(-/-) cells were seeded at 1,000 cells/well in sterile 96-well opaque plates, 75 µl per well. After seeding, the cell culture plates were incubated overnight at 37 °C with 5% CO2 before adhesion, followed by treatment with the test compounds. • 2. DLD-1 BRCA2(-/-) Cell Drug Treatment: The test compound was prepared as a 10 mM stock solution using DMSO. The test compound was then diluted to a 4× working solution using growth medium (starting at 40 µM, with 9 4-fold dilutions). 25 µl of 4× working solution was added to each well to achieve final concentrations of 10000, 2500, 625, 156, 39, 9.7, 2.4, 0.61, and 0.152 nM, respectively. Blank control wells containing the same DMSO concentration were also included, with three replicates for each concentration. After adding the test compound, the cells were incubated at 37 °C with 5% CO2 for 7 days. • 3. After incubation, 100 µl of CellTiter-Glo® Reagent was added to each well, and […] intensity was measured. A curve was fitted using GraphPad software, and the IC50 value for cell proliferation inhibition was calculated.
# [3] = test system: MDA-MB-436 cells; test: Inhibition of proliferation of MDA-MB-436 cells (CellTiter-Glo); format: cell-based; conditions: Homo sapiens, MDA-MB-436, 168 h, 7 days incubation
# Procedure: • 1. Cell Pretreatment: MDA-MB-436 cells were cultured in DMEM + 10% FBS + 1% penicillin-dip antibiotics + 1% ITS + 16 µg/ml glutathione. Cells in the logarithmic growth phase were digested with trypsin-EDTA, centrifuged and resuspended, and then seeded at a rate of 500-1000 cells/well in sterile 96-well opaque plates, 90 µl per well. After seeding, the cell culture plates were incubated overnight at 37°C with 5% CO2 before drug treatment. • 2. Drug treatment of MDA-MB-436 cells: The test compound was prepared as a 10 mM stock solution using DMSO. The drug was then diluted to a 10× working solution using growth medium (the compound was started at 100 µM and diluted 4-fold to achieve 9 concentrations). 10 µl of the 10× working solution was added to each well to achieve final drug concentrations of 10000, 2500, 625, 156, 39, 9.7, 2.4, 0.61, and 0.152 nM, respectively. Blank control wells containing the same DMSO concentration were also included, with three replicates for each concentration. After drug addition, the cells were incubated at 37°C with 5% CO2 for 7 days. • 3. After incubation, 100 µl of CellTiter-Glo® Reagent was added to each well, and luminescence was measured. The IC50 value of cell proliferation inhibition was calculated using GraphPad software to fit the curve. Table E: Results of the inhibitory effect of the compound of this invention on the proliferation of MDA-MB-436 cells.
# [4] = target: PARP2 (Homo sapiens, UniProt Q9UGN5); test: biochemical;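 further: PARP2 enzyme ELISA on histone-coated plates, Strep-HRP detection with chemiluminescence read-out, 10 min compound preincubation with enzyme, inhibition scaled between Max and Min signal controls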
# Sequence of PARP2 (Q9UGN5 whole entry): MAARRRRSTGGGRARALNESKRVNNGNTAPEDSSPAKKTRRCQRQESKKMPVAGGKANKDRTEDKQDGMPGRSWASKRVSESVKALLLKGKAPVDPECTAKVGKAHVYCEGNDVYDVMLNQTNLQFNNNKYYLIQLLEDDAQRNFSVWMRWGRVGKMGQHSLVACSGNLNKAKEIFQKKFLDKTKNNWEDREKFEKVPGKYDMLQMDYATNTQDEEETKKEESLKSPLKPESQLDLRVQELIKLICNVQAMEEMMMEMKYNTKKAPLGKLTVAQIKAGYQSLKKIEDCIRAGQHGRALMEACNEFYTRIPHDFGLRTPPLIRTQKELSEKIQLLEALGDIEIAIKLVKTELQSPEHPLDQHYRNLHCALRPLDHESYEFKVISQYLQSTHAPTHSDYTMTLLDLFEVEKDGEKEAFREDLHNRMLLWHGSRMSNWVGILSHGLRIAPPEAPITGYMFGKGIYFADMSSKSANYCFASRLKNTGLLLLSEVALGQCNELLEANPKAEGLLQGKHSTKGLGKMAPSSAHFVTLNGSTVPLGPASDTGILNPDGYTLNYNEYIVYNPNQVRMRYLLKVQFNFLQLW
# [5] = Pharmacokinetics in mice after intravenous injection or gavage; conditions: BALB/c, mouse, plasma
# Procedure: (§1) The compounds of the present invention were administered to test animals in the form of 5% DMSO + 30% PEG400 + 65% physiological saline, 10% DMSO + 10% Kolliphor HS15 + 80% Saline, 10% DMSO + 89% (25% SBE-B-CD) + (2% HCl), 20% PEG400 + 80% sterile water for injection, or 10% DMA+ 10% HS15 + 30% PEG400 + 50% sterile aqueous solution for injection. Animals were fasted for 12 hours before administration but had free access to water. For the intravenous administration group, the dose was 1 mg/kg. Blood samples (approximately 0.15 mL) were collected intravenously at the following time points after administration: 0.083, 0.25, 0.5, 1.0, 2.0, 4.0, 6.0, 8.0 and 24 h (dogs) or 0.083, 0.25, 0.5, 1.0, 2.0, 5.0, 7.0 and 24 h (mice and rats) or 0.083, 0.25, 0.5, 1.0, 2.0, 6.0, 8.0 and 24 h (monkeys). EDTA-K2 was pre-added to the blood collection tube as an anticoagulant. The blood samples were centrifuged at 12,000 rpm for 2 minutes, and plasma was collected and stored at -20 °C or - 70 °C. For the gavage administration group, the dosage was 1 mg/kg (mice, dogs, and monkeys) or 5 mg/kg (rats). After administration, venous blood samples (approximately 0.15 mL) were collected at the following time points: 0.25, 0.5, 1.0, 2.0, 4.0, 6.0, 8.0, and 24 h (dogs) or 0.25, 0.5, 1.0, 2.0, 5.0, 7.0, and 24 h (mice and rats) or 0.25, 0.5, 1.0, 2.0, 6.0, 8.0, and 24 h (monkeys). EDTA-K2 was pre-added to the blood collection tube as an anticoagulant. The blood samples were centrifuged at 12,000 rpm for 2 minutes, and plasma was collected and stored at -20 °C or -70 °C.
# (§2) The collected plasma samples were processed (frozen plasma was thawed at room temperature, vortexed for 15 s to mix, 10-20 µL of plasma was taken, 120-150 µL of acetonitrile solution containing internal standard was added, vortexed for 5 min to mix, centrifuged at 4,000 rpm for 5 min, 100 µL of supernatant was taken, and 120-150 Ml/water (v/v = 1/1) was added and mixed). The concentration of compounds in the plasma was then analyzed by LC-MS/MS.
# [6] = Pharmacokinetics in SD rats after intravenous injection or gavage; conditions: rat, plasma
# Procedure: as §1, §2
# Table D Pharmacokinetic parameters of compounds of the present invention in SD rats
# Sequence of PARP1 (P09874 whole entry): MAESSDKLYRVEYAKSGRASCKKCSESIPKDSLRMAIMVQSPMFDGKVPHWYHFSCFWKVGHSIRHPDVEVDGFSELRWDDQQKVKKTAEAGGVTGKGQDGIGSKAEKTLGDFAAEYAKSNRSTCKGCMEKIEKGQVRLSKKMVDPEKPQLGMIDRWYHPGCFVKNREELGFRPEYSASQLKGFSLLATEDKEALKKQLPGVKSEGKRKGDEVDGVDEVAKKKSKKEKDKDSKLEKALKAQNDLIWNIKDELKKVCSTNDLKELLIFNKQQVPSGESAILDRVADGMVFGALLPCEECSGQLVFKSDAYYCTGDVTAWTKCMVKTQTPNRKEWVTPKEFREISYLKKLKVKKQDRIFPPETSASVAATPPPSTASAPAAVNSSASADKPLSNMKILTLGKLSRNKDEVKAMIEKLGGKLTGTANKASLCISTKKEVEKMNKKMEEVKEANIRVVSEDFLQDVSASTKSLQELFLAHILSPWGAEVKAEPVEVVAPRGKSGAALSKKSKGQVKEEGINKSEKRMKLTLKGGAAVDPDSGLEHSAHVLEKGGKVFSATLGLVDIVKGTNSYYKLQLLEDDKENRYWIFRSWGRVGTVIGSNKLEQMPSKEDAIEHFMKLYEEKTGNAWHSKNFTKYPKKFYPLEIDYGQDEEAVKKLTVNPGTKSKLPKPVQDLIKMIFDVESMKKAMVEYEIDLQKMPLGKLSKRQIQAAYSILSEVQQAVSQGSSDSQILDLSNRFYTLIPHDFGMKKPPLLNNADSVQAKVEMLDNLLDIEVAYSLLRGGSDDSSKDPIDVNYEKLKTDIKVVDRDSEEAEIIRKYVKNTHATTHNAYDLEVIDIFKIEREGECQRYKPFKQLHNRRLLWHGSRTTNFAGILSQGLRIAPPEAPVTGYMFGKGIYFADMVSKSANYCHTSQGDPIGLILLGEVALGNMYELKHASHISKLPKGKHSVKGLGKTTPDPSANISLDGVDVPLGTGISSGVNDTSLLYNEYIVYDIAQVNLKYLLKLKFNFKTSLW
SMILES,IC50 [1],Selectivity PARP2/PARP1 [1],IC50 [2],IC50 [3],IC50 [4],"AUC(0-t) ([5]; iv, 2 mg/kg)","Cmax ([5]; iv, 2 mg/kg)","half-life ([5]; iv, 2 mg/kg)","AUC(0-t) ([5]; po, 5 mg/kg)","Cmax ([5]; po, 5 mg/kg)","half-life ([5]; po, 5 mg/kg)","AUC(0-t) ([6]; iv, 1 mg/kg)","Cmax ([6]; iv, 1 mg/kg)","half-life ([6]; iv, 1 mg/kg)","AUC(0-t) ([6]; po, 5 mg/kg)","Cmax ([6]; po, 5 mg/kg)","half-life ([6]; po, 5 mg/kg)"
"CC#Cc1cc(CN2CC=C(c3ccc(C(=O)NC4CC4)nc3F)CC2)c(F)c2[nH]c(=O)c(C)nc12 [Example 41, N-cyclopropyl-2-fluoro-1'-((5-fluoro-2-methyl-3-oxo-8-(prop-1-yn-1-yl)-3,4-dihydroquinoxalin-6-yl)methyl)-1',2',3',6'-tetrahydro-[3,4'-bipyridine]-6-carboxamide]",3.1 nM,3254.4,37.4 nM,11.8 nM,> 10000 nM,2230 ng·h/mL,3150 ng/mL,1.3 h,4630 ng·h/mL,2720 ng/mL,1.9 h,1670 ng·h/mL,1720 ng/mL,2.1 h,7870 ng·h/mL,3130 ng/mL,2.8 h
"Cc1nc2c(OC(F)F)cc(CN3CC=C(c4ccc(C(=O)NC5CC5)nc4F)CC3)cc2[nH]c1=O [Example 42, N-cyclopropyl-1'-((8-(difluoromethoxy)-2-methyl-3-oxo-3,4-dihydroquinoxalin-6-yl)methyl)-2-fluoro-1',2',3',6'-tetrahydro-[3,4'-bipyridine]-6-carboxamide]",0.9 nM,239.7,7 nM,0.3 nM,221 nM,18100 ng·h/mL,8180 ng/mL,2.5 h,61500 ng·h/mL,15100 ng/mL,2.5 h,,,,,,
"CNC(=O)c1ccc(N2CCN(Cc3cc(OC(F)F)c4nc(C)c(=O)[nH]c4c3)CC2)c(F)n1 [Example 13, 5-(4-((8-(difluoromethoxy)-2-methyl-3-oxo-3,4-dihydroquinoxalin-6-yl)methyl)piperazin-1-yl)-6-fluoro-N-methylpicolinamide]",0.713 nM,256.6,1.3 nM,3.5 nM,183 nM,17000 ng·h/mL,6560 ng/mL,1.9 h,33900 ng·h/mL,11500 ng/mL,2.9 h,7720 ng·h/mL,2730 ng/mL,3.2 h,57900 ng·h/mL,5810 ng/mL,4.4 h
"CNC(=O)c1ccc(C2=CCN(Cc3cc(OC(F)F)c4nc(C)c(=O)[nH]c4c3)CC2)c(F)n1 [Example 15, 1'-((8-(difluoromethoxy)-2-methyl-3-oxo-3,4-dihydroquinoxalin-6-yl)methyl)-2-fluoro-N-methyl-1',2',3',6'-tetrahydro-[3,4'-bipyridine]-6-carboxamide]",0.6 nM,248.4,4.1 nM,1.3 nM,137 nM,75300 ng·h/mL,13600 ng/mL,3.8 h,189000 ng·h/mL,19000 ng/mL,4.2 h,6060 ng·h/mL,1560 ng/mL,4.1 h,31600 ng·h/mL,3630 ng/mL,4.5 h
"CNC(=O)c1ccc(N2CCN(Cc3cc(-c4ccccc4F)c4nc(C)c(=O)[nH]c4c3)CC2)c(F)n1 [Example 8, 6-fluoro-5-(4-((8-(2-fluorophenyl)-2-methyl-3-oxo-3,4-dihydroquinoxalin-6-yl)methyl)piperazin-1-yl)-N-methylpicolinamide]",4.1 nM,657.2,32.2 nM,23.6 nM,2690 nM,,,,,,,,,,,,
"CNC(=O)c1ccc(N2CCN(Cc3cc(Oc4ccc(F)cc4)c4nc(C)c(=O)[nH]c4c3)CC2)c(F)n1 [Example 6, 6-fluoro-5-(4-((8-(4-fluorophenoxy)-2-methyl-3-oxo-3,4-dihydroquinoxalin-6-yl)methyl)piperazin-1-yl)-N-methylpicolinamide]",1.2 nM,700.1,14.5 nM,6.8 nM,839 nM,,,,,,,,,,,,
"Cc1nc2c(OC(F)F)cc(CN3CCN(c4ccc(C(=O)N[C@H]5C[C@H]5F)nc4F)CC3)cc2[nH]c1=O [Example 57, 5-(4-((8-(difluoromethoxy)-2-methyl-3-oxo-3,4-dihydroquinoxalin-6-yl)methyl)piperazin-1-yl)-6-fluoro-N-((1S,2R)-2-fluorocyclopropyl)picolinamide]",1.7 nM,47.3,2.9 nM,1.7 nM,79.5 nM,,,,,,,,,,,,
"CNC(=O)c1ccc(N2CCN(Cc3cc(OC4CCCC4)c4nc(C)c(=O)[nH]c4c3)CC2)c(F)n1 [Example 71, 5-(4-((8-(cyclopentoxy)-2-methyl-3-oxo-3,4-dihydroquinoxalin-6-yl)methyl)piperazin-1-yl)-6-fluoro-N-methylpyridine amide]",1.5 nM,873.7,12.3 nM,9.3 nM,1290 nM,,,,,,,,,,,,
"CNC(=O)c1ccc2c(n1)COC[C@H]1CN(Cc3cc(OC(F)F)c4nc(C)c(=O)[nH]c4c3)CCN21 [Example 59, (R)-3-((8-(difluoromethoxy)-2-methyl-3-oxo-3,4-dihydroquinoxalin-6-yl)methyl)-N-methyl-2,3,4,4a,5,7-hexahydro-1H-pyrazino[2,1-c]pyrido[3,2-e][1,4]oxazepine-9-carboxamide]",1.9 nM,650.4,8 nM,26.3 nM,1220 nM,,,,,,,,,,,,
"CNC(=O)c1ccc(N2CCN(Cc3cc(-c4cccnc4)c4nc(C)c(=O)[nH]c4c3)CC2)c(F)n1 [Example 11, 6-fluoro-N-methyl-5-(4-((2-methyl-3-oxo-8-(pyridin-3-yl)-3,4-dihydroquinoxalin-6-yl)methyl)piperazin-1-yl)picolinamide]",3.01 nM,224.6,12.9 nM,10.7 nM,676 nM,,,,,,,,,,,,
"CNC(=O)c1ccc(N2CCN(Cc3cc(Nc4ccc(F)cc4)c4nc(C)c(=O)[nH]c4c3)CC2)c(F)n1 [Example 33, 6-fluoro-5-(4-((8-((4-fluorophenyl)amino)-2-methyl-3-oxo-3,4-dihydroquinoxalin-6-yl)methyl)piperazin-1-yl)-N-methylpicolinamide]",1.2 nM,188.8,9.3 nM,4.1 nM,234 nM,,,,,,,,,,,,
"CNC(=O)c1ccc(N2CCN(Cc3cc(OC(F)F)c4nc(C)c(=O)[nH]c4c3)CC2)cn1 [Example 49, 5-(4-((8-(difluoromethoxy)-2-methyl-3-oxo-3,4-dihydroquinoxalin-6-yl)methyl)piperazin-1-yl)-N-methylpicolinamide]",3.2 nM,17.0,12.9 nM,9.1 nM,54 nM,,,,,,,,,,,,
"CNC(=O)c1ccc(N2CCN(Cc3cc(OC(F)F)c4nc(C)c(=O)[nH]c4c3)CC2)c(C)n1 [Example 52, 5-(4-((8-(difluoromethoxy)-2-methyl-3-oxo-3,4-dihydroquinoxalin-6-yl)methyl)piperazin-1-yl)-N,6-dimethylpicolinamide]",,,2.2 nM,1.4 nM,,17800 ng·h/mL,7220 ng/mL,2.5 h,67100 ng·h/mL,10700 ng/mL,2.8 h,3520 ng·h/mL,1190 ng/mL,3.5 h,31100 ng·h/mL,2580 ng/mL,3.8 h
"CNC(=O)c1ccc(N2CCN(Cc3cc(Oc4ccc(C#N)cc4)c4nc(C)c(=O)[nH]c4c3)CC2)c(F)n1 [Example 32, 5-(4-((8-(4-cyanophenoxy)-2-methyl-3-oxo-3,4-dihydroquinoxalin-6-yl)methyl)piperazin-1-yl)-6-fluoro-N-methylpicolinamide]",2.8 nM,>833,68.8 nM,40.1 nM,> 10000 nM,,,,,,,,,,,,
